Experimental data: patent US4956355A, “Agents for the arrest and therapy of retroviral infections” (Colthurst Limited, priority 1987, dated 1990)
Where two headings read alike, the source gives them in different places.

Experiments:
HIV in human macrophages = assay: Inhibition of cytoplasmic HIV p24 antigen in HIV-infected macrophages; assay type: cell-based; conditions: FIG. 4
Protocol: (§1) 1. […] All three viral strains were grown in the Tissue Culture Laboratory of the AIDS Activity Division of San Francisco General Hospital where titers of […] infectious units per ml were routinely achieved.
(§2) 2. Source of cells: The VB cell line used in Example 1 is a T lymphoma cell line that is highly susceptible to infection with HIV, and expresses high levels of cell surface CD4 molecules. This cell line forms syncytia within two days after infection with all strains of HIV tested to date. […] This is used to quantitate infection in the absence of syncytial formation, infection being quantitated by immunofluorescence assays. The HXB/H9 cell line (Example 6) is an H9 cell population that chronically produces the HTLV-IIIB strain of HIV and is utilised in experiments testing antiviral effects on chronically infected cell lines. Human macrophages were prepared from peripheral blood mononuclear cells either obtained from the blood bank as a buffy coat, or as a leukophoresis preparation. Crowe et al. supra have devised an assay system that allows quantitation of HIV infection, and inhibition of infection using immunocytofluorographic analysis. In order to quantitate HIV infection in macrophages, they grow macrophages in Teflon (Trade Mark) culture vessels which maintain macrophages in suspension in vitro culture for up to six months. Cell surface and cytoplasmic immunofluorescence staining is then performed to quantitate antigens in macrophages by flow cytometry.
3. Flow cytometry: An Ortho Cytofluorgraf II-S (Trade Mark) that has a biohazard containment flow cell was used for analysis of HIV infected samples. HIV p24 antigens were detected utilizing a mouse monoclonal anti-p24 (du Pont), and mouse antibodies were identified utilizing an FITC conjugated goat anti-mouse IgG. […]
The cells from the experiment described in Example 3 were analysed, and the cytoplasm was analysed for the presence of HIV p24 to directly test whether HIV p24 antigen production was inhibited within those infected cells. […]

HIV in HXB/H9 cell line = assay: Antiviral testing of chronically HIV infected cell line HXB; assay type: cell-based; conditions: other than killing with compound B at 10^-4 molar
Protocol: as §1
as §2, with “Human macrophages were prepared from peripheral blood mononuclear cells either obtained from the blood bank as a buffy coat, or as a leukophoresis preparation.” left out, “cytometry. […]” for “cytometry.”

[1] = system: human peripheral blood mononuclear (PBM) cells infected with Epstein-Barr virus; conditions: cited from earlier work
[2] = system: permeability of membranes; conditions: cited from earlier work
normal human macrophages = assay: Nonspecific toxicity to normal human macrophages; assay type: cell-based; conditions: 10^-4 to 10^-8 molar
Protocol: 7. Analysis of nonspecific toxicity to the target cells with Compounds A and B. The VB, H9 and HXB cell lines were exposed to different concentrations of Compounds A and B as were normal human macrophages for the length of time the drug was in contact with each cell line as described in the above assays. Cell numbers were counted, and live versus dead were determined by Trypan blue exclusion assays. These tests were required to determine a therapeutic index between nonspecific toxic effects on the described cells, compared with potential effective antiviral effects in vitro (Example 6).

mitotic activity = conditions: cited from earlier work
[3] = system: HIV in VB T lymphoma cell line; assay: Inhibition of HIV mediated cytopathic effects (multinucleated giant/syncytial cell formation) in acutely infected VB tumor cell line; assay type: cell-based
Protocol: as §1, §2
5. Inhibition of acute infection: Several assays were utilized to test for inhibition of acute infection; these included:
(a) Inhibition of multinucleated giant cell formation in acutely infected VB cells infected at a multiplicity of infection of 1, and scored two days after infection in the presence or absence of varying concentrations of drug, for the formation of multinucleated giant cells. (free virus is washed out after a one hour incubation pretreatment at room temperature). […] Supernatants were also isolated and the level of HIV p24 antigen determined. Infectious virus was measured in treated cultures by performing a syncytial assay as described above.
Compounds A and B were tested for inhibition of T lymphoma cell cytopathic effect at various drug concentrations after acute infection with HIV for 48 hours. […] It is possible that the diminished effects noted in later experiments could have been secondary to drug stability problems.

[4] = murine model of SLE; cited from earlier work
[5] = system: glucose-6-phosphate dehydrogenase; conditions: cited from earlier work
[6] = Safety of dehydroepiandrosterone in subjects; assay type: in vivo, human
Protocol: Twelve patients all of whom were sero-positive for HIV and had been diagnosed as suffering from AIDS were treated with DHEA for up to six months. The DHEA was administered in the form of hard gelatin capsules containing 100 mg of DHEA and at a rate of 100 mg to 600 mg per day. The vast majority being on 500 mg per day in divided doses. The patients were all homosexual or bisexual males with an average age of 34.5 years and an average weight of 69.6 kg.

## C[C@]12CC[C@H](O)CC1=CC[C@@H]1[C@@H]2CC[C@]2(C)C(=O)CC[C@@H]12 [A, dehydroepiandrosterone]
HIV in human macrophages; 10^-4 molar, three donors
  HIV p24 cytoplasmic antigen production: substantially inhibited
HIV in human macrophages; dilutions even at 10^-6 molar
  inhibiting HIV p24 antigen production within infected macrophages: active
HIV in HXB/H9 cell line
  inhibition of HIV production of cytopathic effects in chronically infected lymphoma cell line: no specific inhibition
[1]
  concentrations reducing colony forming ability: 10 to 100 µM
[2]
  effect on permeability of membranes: inhibitory effect
Normal human macrophages
  toxicity in normal macrophages: not appreciable toxicity
Mitotic activity
  effect on mitotic activity: inhibitory effect
[3]; acute infection
  antiviral effects in comparison with AZT, T lymphoma cells: inferior
[3]; acute infection, conclusions
  antiviral effect in acute infection studies of T lymphoma cells: mild antiviral effect
[3]; compounds diluted in DMSO, possibly secondary to drug stability problems
  inhibition of cytopathic effect in two subsequent experiments: less striking effect
[4]
  autoantibody formation: prevents autoantibody formation
[5]
  effect on glucose-6-phosphate dehydrogenase: inhibits glucose-6-phosphate dehydrogenase
[5]; listed as DHEA
  effect on glucose-6-phosphate dehydrogenase: inhibitory effect
[6]; general statement
  toxicity in treatment of patients infected with HIV: virtual absence of toxicity
[6]; twelve subjects, daily doses of up to 600 mg for up to six months
  adverse physical, biochemical or hematological effects: complete lack of adverse physical, biochemical or hematological effects
